Here are results for one compound from patent publication US11833204B2, “Visible light-activatable nanoparticles for cancer immunotherapy and use thereof” (KOREA INSTITUTE OF SCIENCE AND TECHNOLOGY, priority 2021, dated 2023).

The subject of series [1] is CT26 cells. In words: CT26 cell viability (CCK) after visible light irradiation. The format is cell-based. Particulars: CT26, 0-10 μM, 24 h, 671 nm laser 40 mW 250 sec. As to the method: After CT26 cells were plated in a 96-well plate at a density of 5×10^3 cells/well, the wells were treated with doxorubicin (DOX) (0, 0.01, 0.1, 1, and or 10 μM), verteporfin (VPF) (0, 0.01, 0.1, 1, and 10 μM), mixtures thereof (DOX+VPF), and the self-assembled nanoparticles (LT-NPs) (0, 0.01, 0.1, 1, and 10 μM). After culture for 24 h, cells were exposed by irradiation with visible light using a 671 nm laser at 40 mW for 250 sec. Then, a cell culture medium containing […] of CCK solution was added to each well. Cells were further cultured for 20 min and the absorbance of the 96-well plate was measured at 450 nm on a VERSAmax™ microplate reader (Molecular Devices Corp., Sunnyvale, Calif.).

Series [2] relates to CT26 cells. The experiment in a line: Immunogenic cell death: extracellular ATP release. The format is cell-based. The note with it: CT26, 5 μM, 24 h, +L/−L. As to the method: First, CT26 cells were plated in 35 mm cell culture dishes at a density of 1×10^5 cells/dish and doxorubicin (DOX) (5 μM), verteporfin (VPF) (5 μM) or the self-assembled nanoparticles (LT-NPs) (5 μM) were added to each dish. After 24-h culture, one half was exposed by irradiation with visible light using a 671 nm laser at 40 mW for 250 sec (+L) and the other half was not irradiated with visible light for comparison (−L). The immunogenic cell death of the self-assembled nanoparticles (LT-NPs) was evaluated using the cells and the cell culture media.
ATP was analyzed using a commercially available ATP assay kit (Beyotime Biotechnology) according to the manufacturer's protocol.

For series [3], the system named is CT26 cells. The experiment in a line: Anticancer effect in CT26 tumor animal model. The format is in vivo, mice. The protocol: […] nude mice (6 weeks old, 20-25 g, male) bred in a sterile environment were used. The mice were acclimated for 2 weeks prior to starting the experiment. The mice had ad libitum access to food and water in cages maintained at a temperature of 22±2° C. and a humidity of 40-60% on a 12 h light and dark cycle during the experiment. All experimental procedures were performed according to the guidelines of the Institutional Animal Care and Use Committee of the Korea Institute of Science and Technology.
Colon cancer was induced in the male nude mice. To this end, 1×10^6 CT26 cells were subcutaneously inoculated into the left thigh of each mouse to construct a tumor animal model. Thereafter, the tumor was allowed to grow until its volume reached ˜200-250 mm^3 prior to the experiment. For sample administration, the mice were randomly divided into 4 groups, 24 animals per group. In a control (“Con”), animals were administered intravenously PBS at a concentration of 5 mg/kg twice on days 0 and 2. In a DOX-administered group, animals were administered intravenously doxorubicin (DOX) at a concentration of 5 mg/kg twice on days 0 and 2. In a VPF(+L)-administered group, animals were administered intravenously verteporfin (VPF) at a concentration of 5 mg/kg twice on days 0 and 2 and exposed by irradiation with visible light using a 671 nm laser at 40 mW for 250 sec. In an LT-NPs(-L)-administered group, animals were administered intravenously the self-assembled nanoparticles (LT-NPs) at a concentration of 5 mg/kg twice on days 0 and 2. In an LT-NPs(+L)-administered group, animals were administered intravenously the self-assembled nanoparticles (LT-NPs) at a concentration of 5 mg/kg twice on days 0 and 2 and exposed by irradiation with visible light using a 671 nm laser at 40 mW for 250 sec.
Changes in tumor volume (maximum diameter x minimum diameter^2×0.53) in the groups were measured every 2 days for a total of 0-25 days. After 7 days, blood was harvested from each group and analyzed for HSP70, HMGB1, immunogenic apoptotic cancer cells, mature dendritic cells, activated T cells, and IFN-γ levels.
9 h after drug administration, cancer tissues were excised from each group. Each cancer tissue was sectioned to a thickness of 10 μm, washed twice with DBPS, and stained with DAPI in the dark for 15 min. The section was imaged using a Leica TCS SP8 focal microscope (Leica Microsystems GmbH).
Immune cells infiltrated into cancer cells in each group were analyzed. After 7 days, animals in each group were euthanized under anesthesia and cancer tissues were collected. Monocytes were isolated using a tumor dissociation kit (Miltenyi Biotec) according to the manufacturer's protocol. Next, the monocytes were incubated with Fc block for 5 min to avoid non-specific binding and stained with antibodies for 1 h to determine the proportions of i) immunogenic apoptotic cancer cells (CD45 and CRT staining), ii) activated T cells (CD45, CD3, and CD8 staining), and iii) mature dendritic cells (CD11c, CD40, and CD86 staining) in the cancer tissues.

A short description of series [4]: Morphological analysis by transmission electron microscopy in saline. The format is physicochemical. The note with it: 1 mg in 1 mL physiological saline. As to the method: The self-assembled nanoparticles (LT-NPs) prepared in Example 1, doxorubicin (DOX), and verteporfin (VPF) were used as samples. 1 mg of each sample was mixed with physiological saline (1 mL). […] The self-assembled nanoparticles (LT-NPs) were mixed with cathepsin B (Cat-B) protease (50 μg/mL). The mixture was allowed to react for 24 h.

Series [5] has as its system spleen cells isolated from Balb/c mice. In words: Immune cell activation: treated CT26 cells co-cultured with spleen cells (flow cytometry). The format is cell-based. The note with it: 5 μM, co-culture with spleen cells 24 h; versus doxorubicin or verteporfin alone. The protocol:
First, CT26 cells were plated in 100-pi cell culture dishes at a density of 1×10^6 cells/dish and cultured for stabilization for 24 h. Doxorubicin (DOX) (5 μM), verteporfin (VPF) […] or the self-assembled nanoparticles (LT-NPs) (5 μM) were added to each dish. After 24-h culture, one half was exposed by irradiation with visible light using a 671 nm laser at 40 mW for 250 sec (+L) and the other half was not irradiated with visible light for comparison (−L). 1×10^6 spleen cells isolated from Balb/c mice were added to each sample, followed by co-culture for 24 h (FIG. 4I).
The degrees of differentiation into mature dendritic cells and activated T cells in each sample were analyzed using a flow cytometer.
A general note: A flow cytometer gives signals particle by particle.

[6] abbreviates: after 7 days, +L, Western blotting, versus other groups.

Consider `C=CC1=C(C)/C2=C/C3=NC(Cc4[nH]c(c(CCCCC(=O)OC)c4C)CC4N=C(CC1N2)C(C)=C4CCC(=O)N[C@H](Cc1ccccc1)C(=O)N[C@@H](CCCNC(=N)N)C(=O)N[C@H](CCCNC(=N)N)C(=O)NCC(=O)NC1C[C@@H](OC2C[C@](O)(C(=O)CO)Cc4c(O)c5c(c(O)c42)C(=O)c2c(OC)cccc2C5=O)O[C@@H](C)[C@H]1O)[C@@]1(C)C3=CC=C(C(=O)OC)[C@@H]1C(=O)OC` (stereo partly shown) [LT-NPs, VPF-FRRG(SEQ ID NO: 1)-DOX], for which the “cell viability versus doxorubicin and verteporfin” value in the series with CT26 cells [1] was “no significant differences”. In the series on CT26 cells [2], the ATP release result is reported as “significantly higher”. The “number of animals cured” value in the series with CT26 cells [3] (5 mg/kg i.v. days 0 and 2, +L) is 3. Also, the “growth of cancer cells (tumor volume)” value in the series with CT26 cells [3] (5 mg/kg i.v. days 0 and 2, +L (671 nm laser 40 mW 250 sec), versus other groups) is “significantly reduced”. Further, in the series on CT26 cells [3] (after 7 days, +L), the “proportion of activated T cells in cancer tissues” value is reported as “significantly higher than those in the other groups”, the “proportion of immunogenic apoptotic cancer cells in cancer tissues” value is given as “significantly higher than those in the other groups” and the “proportion of mature dendritic cells in cancer tissues” value is “significantly higher than those in the other groups”. For the same compound, in the series with CT26 cells [3] (setting [6]), the “expression level of HMGB1” value is “significantly high” and the “expression level of HSP70” value was “significantly high”. For the same compound, the “degree of apoptosis in cancer cells” value with CT26 cells [3] (after 7 days, +L, versus other groups) is “significantly high”. The “morphology in physiological saline (TEM)” value in series [4] is listed as “dispersed without aggregation in saline”. In addition, in series [5], the “degree of differentiation into activated T cells” value is on record as “significantly higher” and the “degree of differentiation into mature dendritic cells” value is recorded as “significantly higher”.
